Assay results reported in the NIST ThermoML archive (doi:10.1007/s10765-012-1370-2).

Assay: xn = mol fraction of the nth substance listed
Conditions: Liquid, Bellows volumetry

CCC [propane] + O=C=O
mass density [kg/m3]
Conditions	x2 = 0.1744	x2 = 0.3863	x2 = 0.5837	x2 = 0.7732
280 K, 3000 kPa	556.31	–	–	–
280 K, 5000 kPa	561.89	–	–	–
280 K, 10000 kPa	573.48	620.48	680.55	763.91
280 K, 20000 kPa	592.16	644.94	713.25	807.46
280 K, 30000 kPa	606.51	663.74	737.38	837.33
280 K, 40000 kPa	619.31	678.81	756.53	861.06
280 K, 50000 kPa	629.89	691.83	772.63	880.32
280 K, 60000 kPa	639.83	703.48	786.68	897.67
280 K, 70000 kPa	648.12	713.93	799.31	912.73
280 K, 80000 kPa	656.23	723.24	810.6	927.24
280 K, 90000 kPa	663.51	732.5	821.14	939.34
280 K, 100000 kPa	670.12	740.27	830.57	951.22
280 K, 120000 kPa	682.47	754.61	847.84	971.86
280 K, 140000 kPa	693.54	767.28	862.96	989.75
280 K, 160000 kPa	703.41	779.18	876.77	1006.14
280 K, 180000 kPa	712.71	789.73	889	1020.76
280 K, 200000 kPa	720.96	799.56	900.92	1034.57
320 K, 5000 kPa	482.68	–	–	–
320 K, 10000 kPa	508.23	530.48	547.46	–
320 K, 20000 kPa	539.43	577.9	623.7	683.7
320 K, 30000 kPa	560.67	606.46	663.4	738.49
320 K, 40000 kPa	577.4	628.01	691.1	775.23
320 K, 50000 kPa	591.36	645.47	713.18	803.46
320 K, 60000 kPa	603.47	660.15	731.74	826.73
320 K, 70000 kPa	613.78	673.05	747.63	846.24
320 K, 80000 kPa	623.2	684.45	761.45	863.57
320 K, 90000 kPa	631.77	694.88	773.99	879.25
320 K, 100000 kPa	639.8	704.18	785.61	893.05
320 K, 120000 kPa	654.22	721.25	806	917.78
320 K, 140000 kPa	666.67	735.96	824.18	939.18
320 K, 160000 kPa	678.11	749.2	839.79	958.02
320 K, 180000 kPa	688.17	761.05	853.99	975.24
320 K, 200000 kPa	697.95	772.24	866.84	990.64
360 K, 10000 kPa	419.87	–	–	–
360 K, 20000 kPa	481.41	501.31	518.21	532.45
360 K, 30000 kPa	513.49	546.54	584.42	631.46
360 K, 40000 kPa	535.86	576.34	624.74	686.69
360 K, 50000 kPa	553.69	599.05	654.15	725.46
360 K, 60000 kPa	568.6	–	–	–
